Test results published in the NIST ThermoML archive (doi:10.1021/je800110r).
± gives the expanded uncertainty stated by the source.

Details: Liquid, Vibrating tube method

A mass density (303.15 K, 32305 kPa) of 745.4 ± 2.1 kg/m3, a mass density (303.15 K, 32325 kPa) of 745.3 ± 2.1 kg/m3 and a mass density (303.15 K, 32357 kPa) of 745.5 ± 2.1 kg/m3 were found for `CCCCCCCCCC` [decane] in this work. The mass density (303.15 K, 32384 kPa) was 745.5 ± 2.1 kg/m3, the mass density (303.15 K, 32413 kPa) was 745.5 ± 2.1 kg/m3 and the mass density (303.15 K, 32436 kPa) was 745.5 ± 2.1 kg/m3. It also gave a mass density (303.15 K, 32459 kPa) of 745.5 ± 2.1 kg/m3, a mass density (303.15 K, 32482 kPa) of 745.5 ± 2.1 kg/m3 and a mass density (303.15 K, 32502 kPa) of 745.6 ± 2.1 kg/m3. The mass density (303.15 K, 32522 kPa) was 745.4 ± 2.1 kg/m3, the mass density (303.15 K, 32543 kPa) was 745.6 ± 2.1 kg/m3 and the mass density (303.15 K, 32563 kPa) was 745.6 ± 2.1 kg/m3. For the same compound, the mass density (303.15 K, 32588 kPa) was 745.6 ± 2.1 kg/m3, the mass density (303.15 K, 32611 kPa) was 745.7 ± 2.1 kg/m3 and the mass density (303.15 K, 32637 kPa) was 745.6 ± 2.1 kg/m3. For the same compound, the mass density (303.15 K, 32667 kPa) was 745.7 ± 2.1 kg/m3, the mass density (303.15 K, 32691 kPa) was 745.7 ± 2.1 kg/m3 and the mass density (303.15 K, 32718 kPa) was 745.7 ± 2.1 kg/m3. It also gave a mass density (303.15 K, 32741 kPa) of 745.7 ± 2.1 kg/m3, a mass density (303.15 K, 32758 kPa) of 745.8 ± 2.1 kg/m3 and a mass density (303.15 K, 32788 kPa) of 745.8 ± 2.1 kg/m3. The mass density (303.15 K, 32812 kPa) was 745.8 ± 2.1 kg/m3, the mass density (303.15 K, 32840 kPa) was 745.9 ± 2.1 kg/m3 and the mass density (303.15 K, 32864 kPa) was 745.9 ± 2.1 kg/m3. It also gave a mass density (303.15 K, 32892 kPa) of 745.8 ± 2.1 kg/m3, a mass density (303.15 K, 32923 kPa) of 745.8 ± 2.1 kg/m3 and a mass density (303.15 K, 32943 kPa) of 745.9 ± 2.1 kg/m3. The mass density (303.15 K, 32971 kPa) was 745.9 ± 2.1 kg/m3, the mass density (303.15 K, 32989 kPa) was 745.9 ± 2.1 kg/m3 and the mass density (303.15 K, 33010 kPa) was 745.9 ± 2.1 kg/m3. For the same compound, the mass density (303.15 K, 33031 kPa) was 746 ± 2.1 kg/m3, the mass density (303.15 K, 33062 kPa) was 746 ± 2.1 kg/m3 and the mass density (303.15 K, 33093 kPa) was 746 ± 2.1 kg/m3. The mass density (303.15 K, 33114 kPa) was 746 ± 2.1 kg/m3, the mass density (303.15 K, 33138 kPa) was 746.1 ± 2.1 kg/m3 and the mass density (303.15 K, 33163 kPa) was 746 ± 2.1 kg/m3. For the same compound, the mass density (303.15 K, 33184 kPa) was 746 ± 2.1 kg/m3, the mass density (303.15 K, 33212 kPa) was 746.1 ± 2.1 kg/m3 and the mass density (303.15 K, 33230 kPa) was 746.1 ± 2.1 kg/m3. The mass density (303.15 K, 33258 kPa) was 746.1 ± 2.1 kg/m3, the mass density (303.15 K, 33286 kPa) was 746 ± 2.1 kg/m3 and the mass density (303.15 K, 33314 kPa) was 746.1 ± 2.1 kg/m3. It also gave a mass density (303.15 K, 33339 kPa) of 746.1 ± 2.1 kg/m3, a mass density (303.15 K, 33364 kPa) of 746 ± 2.1 kg/m3 and a mass density (303.15 K, 33389 kPa) of 746.1 ± 2.1 kg/m3. For the same compound, the mass density (303.15 K, 33424 kPa) was 746.1 ± 2.1 kg/m3, the mass density (303.15 K, 33458 kPa) was 746.1 ± 2.1 kg/m3 and the mass density (303.15 K, 33487 kPa) was 746.2 ± 2.1 kg/m3. It also gave a mass density (303.15 K, 33512 kPa) of 746.2 ± 2.1 kg/m3, a mass density (303.15 K, 33545 kPa) of 746.2 ± 2.1 kg/m3 and a mass density (303.15 K, 33566 kPa) of 746.3 ± 2.1 kg/m3. It also gave a mass density (303.15 K, 33588 kPa) of 746.3 ± 2.1 kg/m3, a mass density (303.15 K, 33621 kPa) of 746.3 ± 2.1 kg/m3 and a mass density (303.15 K, 33642 kPa) of 746.3 ± 2.1 kg/m3. For the same compound, the mass density (303.15 K, 33676 kPa) was 746.4 ± 2.1 kg/m3, the mass density (303.15 K, 33697 kPa) was 746.3 ± 2.1 kg/m3 and the mass density (303.15 K, 33719 kPa) was 746.4 ± 2.1 kg/m3. The mass density (303.15 K, 33741 kPa) was 746.4 ± 2.1 kg/m3, the mass density (303.15 K, 33764 kPa) was 746.3 ± 2.1 kg/m3 and the mass density (303.15 K, 33790 kPa) was 746.4 ± 2.1 kg/m3. For the same compound, the mass density (303.15 K, 33816 kPa) was 746.4 ± 2.1 kg/m3, the mass density (303.15 K, 33848 kPa) was 746.4 ± 2.1 kg/m3 and the mass density (303.15 K, 33871 kPa) was 746.4 ± 2.1 kg/m3. For the same compound, the mass density (303.15 K, 33904 kPa) was 746.4 ± 2.1 kg/m3, the mass density (303.15 K, 33923 kPa) was 746.4 ± 2.1 kg/m3 and the mass density (303.15 K, 33961 kPa) was 746.4 ± 2.1 kg/m3. The mass density (303.15 K, 33984 kPa) was 746.6 ± 2.1 kg/m3, the mass density (303.15 K, 34018 kPa) was 746.6 ± 2.1 kg/m3 and the mass density (303.15 K, 34044 kPa) was 746.5 ± 2.1 kg/m3. The mass density (303.15 K, 34068 kPa) was 746.5 ± 2.1 kg/m3, the mass density (303.15 K, 34100 kPa) was 746.6 ± 2.1 kg/m3 and the mass density (303.15 K, 34124 kPa) was 746.5 ± 2.1 kg/m3. For the same compound, the mass density (303.15 K, 34151 kPa) was 746.6 ± 2.1 kg/m3, the mass density (303.15 K, 34180 kPa) was 746.5 ± 2.1 kg/m3 and the mass density (303.15 K, 34218 kPa) was 746.6 ± 2.1 kg/m3. The mass density (303.15 K, 34247 kPa) was 746.6 ± 2.1 kg/m3, the mass density (303.15 K, 34265 kPa) was 746.8 ± 2.1 kg/m3 and the mass density (303.15 K, 34284 kPa) was 746.8 ± 2.1 kg/m3. It also gave a mass density (303.15 K, 34306 kPa) of 746.8 ± 2.1 kg/m3, a mass density (303.15 K, 34332 kPa) of 746.7 ± 2.1 kg/m3 and a mass density (303.15 K, 34354 kPa) of 746.7 ± 2.1 kg/m3. The mass density (303.15 K, 34372 kPa) was 746.8 ± 2.1 kg/m3, the mass density (303.15 K, 34395 kPa) was 746.7 ± 2.1 kg/m3 and the mass density (303.15 K, 34422 kPa) was 746.8 ± 2.1 kg/m3. For the same compound, the mass density (303.15 K, 34443 kPa) was 746.9 ± 2.1 kg/m3, the mass density (303.15 K, 34449 kPa) was 746.8 ± 2.1 kg/m3 and the mass density (303.16 K, 4203 kPa) was 725.7 ± 2 kg/m3. The mass density (303.16 K, 4220 kPa) was 725.6 ± 2 kg/m3, the mass density (303.16 K, 4238 kPa) was 725.7 ± 2 kg/m3 and the mass density (303.16 K, 4251 kPa) was 725.8 ± 2 kg/m3. The mass density (303.16 K, 4264 kPa) was 725.7 ± 2 kg/m3, the mass density (303.16 K, 4275 kPa) was 725.6 ± 2 kg/m3 and the mass density (303.16 K, 4290 kPa) was 725.8 ± 2 kg/m3. The mass density (303.16 K, 4305 kPa) was 725.8 ± 2 kg/m3, the mass density (303.16 K, 4325 kPa) was 725.8 ± 2 kg/m3 and the mass density (303.16 K, 4341 kPa) was 725.8 ± 2 kg/m3. The mass density (303.16 K, 4354 kPa) was 725.8 ± 2 kg/m3, the mass density (303.16 K, 4367 kPa) was 725.9 ± 2 kg/m3 and the mass density (303.16 K, 4380 kPa) was 725.8 ± 2 kg/m3. It also gave a mass density (303.16 K, 4395 kPa) of 725.9 ± 2 kg/m3, a mass density (303.16 K, 4407 kPa) of 725.9 ± 2 kg/m3 and a mass density (303.16 K, 4422 kPa) of 725.8 ± 2 kg/m3. It also gave a mass density (303.16 K, 4433 kPa) of 725.9 ± 2 kg/m3, a mass density (303.16 K, 4451 kPa) of 725.9 ± 2 kg/m3 and a mass density (303.16 K, 4466 kPa) of 725.8 ± 2 kg/m3. For the same compound, the mass density (303.16 K, 4480 kPa) was 725.9 ± 2 kg/m3, the mass density (303.16 K, 4496 kPa) was 726 ± 2 kg/m3 and the mass density (303.16 K, 4508 kPa) was 726 ± 2 kg/m3. The mass density (303.16 K, 4521 kPa) was 725.9 ± 2 kg/m3, the mass density (303.16 K, 4534 kPa) was 725.9 ± 2 kg/m3 and the mass density (303.16 K, 4547 kPa) was 726 ± 2 kg/m3. It also gave a mass density (303.16 K, 4563 kPa) of 726 ± 2 kg/m3, a mass density (303.16 K, 4577 kPa) of 726.1 ± 2 kg/m3 and a mass density (303.16 K, 4593 kPa) of 726 ± 2 kg/m3. The mass density (303.16 K, 4606 kPa) was 726 ± 2 kg/m3, the mass density (303.16 K, 4625 kPa) was 726 ± 2 kg/m3 and the mass density (303.16 K, 4643 kPa) was 726 ± 2 kg/m3. The mass density (303.16 K, 4656 kPa) was 726.1 ± 2 kg/m3, the mass density (303.16 K, 4675 kPa) was 726.1 ± 2 kg/m3 and the mass density (303.16 K, 4693 kPa) was 726.1 ± 2 kg/m3. It also gave a mass density (303.16 K, 4708 kPa) of 726.1 ± 2 kg/m3, a mass density (303.16 K, 4723 kPa) of 726.1 ± 2 kg/m3 and a mass density (303.16 K, 4736 kPa) of 726.2 ± 2 kg/m3. It also gave a mass density (303.16 K, 4754 kPa) of 726.1 ± 2 kg/m3, a mass density (303.16 K, 4774 kPa) of 726.2 ± 2 kg/m3 and a mass density (303.16 K, 4788 kPa) of 726.2 ± 2 kg/m3. For the same compound, the mass density (303.16 K, 4802 kPa) was 726.1 ± 2 kg/m3, the mass density (303.16 K, 4819 kPa) was 726.2 ± 2 kg/m3 and the mass density (303.16 K, 4835 kPa) was 726.2 ± 2 kg/m3. The mass density (303.16 K, 4846 kPa) was 726.2 ± 2 kg/m3, the mass density (303.16 K, 4858 kPa) was 726.3 ± 2 kg/m3 and the mass density (303.16 K, 4870 kPa) was 726.2 ± 2 kg/m3. The mass density (303.16 K, 4881 kPa) was 726.1 ± 2 kg/m3, the mass density (303.16 K, 4893 kPa) was 726.1 ± 2 kg/m3 and the mass density (303.16 K, 4904 kPa) was 726.2 ± 2 kg/m3. For the same compound, the mass density (303.16 K, 4918 kPa) was 726.3 ± 2 kg/m3 and the mass density (303.16 K, 4931 kPa) was 726.3 ± 2 kg/m3.
